In US4719235A, “Methods and compositions for treating viral infection” (Kern; Gerald N., priority 1985, dated 1988):
Like-named read-outs stand apart in the source and are kept apart here.

Legend:
HSV-2 [1] = assay: Titration of HSV-2 after contact with serum-free docusate sodium solutions (plaque assay on MA-104 cells); type: cell-based, Herpes Simplex Type 2
HSV-2 [2] = assay: Titration of HSV-2 after contact with docusate sodium solutions containing 10% fetal calf serum; type: cell-based, Herpes Simplex Type 2
Rotavirus strain SA-11 = assay: Titration of Rotavirus strain SA-11 after contact with docusate sodium solutions; type: cell-based; conditions: for plaque forming units: 0.2 mg/ml; for pfu/ml: 1 mg/ml
Coxsackievirus B-5 = assay: Titration of Coxsackievirus B-5 after contact with docusate sodium solutions; type: cell-based; conditions: 0.2 mg/ml
[3] = test system: Respiratory syncytial virus (RSV); assay: Inactivation of Respiratory Syncytial Virus (CPE on HeLa cells); type: cell-based
Influenza A virus [4] = assay: Inactivation of Influenza A virus (CPE on MDCK cells); type: cell-based
[5] = Cytotoxicity in solutions free of serum, HeLa; type: cell-based, human; design: key to HeLa (toxicity): 0: Cells had normal morphology; 4+: >90% of cells showed CTE; conditions: human, hela cells, 0.2 mg/ml, 37° C., read-out: HeLa (toxicity)
Description: (§1) The cell lines used to evaluate cytotoxicity of docusate sodium were MA-104 derived from monkey kidneys, HeLa derived from human uterine carcinoma and primary fibroblasts from human foreskin. The cells were grown to confluency in 60×15 mm dishes. The cell monolayers were washed free of growth medium and 5 ml of serum-less growth medium containing docusate sodium at various concentrations was added. The curtures were incubated 24 hours at 37° C. and the cells then examined microscopically for cytotoxic effects (CTE). Controls were done in the same manner except that they were not exposed to docusate sodium.

HeLa = assay: Cytotoxicity in solutions free of serum, HeLa; type: cell-based, human; design: key to HeLa (toxicity): 0: Cells had normal morphology; 4+: >90% of cells showed CTE; conditions: 24 hours, 37° C.
Description: as §1

[6] = Cytotoxicity in solutions free of serum, foreskin fibroblasts; type: cell-based, human; design: key to Foreskin (toxicity): 0: Cells had normal morphology; 4+: >90% of cells showed CTE; conditions: human, foreskin fibroblasts, 0.2 mg/ml, 37° C., read-out: Foreskin (toxicity)
Description: as §1

[7] = test system: primary fibroblasts from human foreskin; assay: as above; type: cell-based; design: key to Foreskin (toxicity): 0: Cells had normal morphology; 4+: >90% of cells showed CTE; conditions: 24 hours, 37° C.
Description: as §1

[8] = Cytotoxicity in solutions free of serum, selected cell lines (overall conclusion); type: cell-based; conditions: serum-free medium, read-out: concentration toxic to the cells
Description: as §1

MA-104 = assay: Cytotoxicity in solutions containing serum, MA-104; type: cell-based, monkey; design: key: 0: Cells have normal morphology; 4+: >90% of cells showed CTE.; ±c: less than 10% of cells showed CTE; conditions: 2% fetal calf serum, 24 hours, 37° C.
Description: (§2) The cells were grown to confluency in 60×15 mm dishes. The cell monolayers were washed free of growth medium and 5 ml of serum-less growth medium containing docusate sodium at various concentrations was added. The curtures were incubated 24 hours at 37° C. and the cells then examined microscopically for cytotoxic effects (CTE). Controls were done in the same manner except that they were not exposed to docusate sodium.
(§3) The same procedure that was used for Example 17 was used for this Example except that the medium used for growing the cells contained 2% by volume fetal calf serum.

[9] = Cytotoxicity in solutions containing serum, foreskin fibroblasts; type: cell-based, human; design: key to Foreskin (Cytotoxic effect): 0: Cells have normal morphology; 4+: >90% of cells showed CTE.; ±c: less than 10% of cells showed CTE; conditions: human, foreskin fibroblasts, 2% fetal calf serum, 37° C., read-out: Foreskin (Cytotoxic effect)
Description: as §2, §3

[10] = test system: primary fibroblasts from human foreskin; assay: as above; type: cell-based; design: key to Foreskin (Cytotoxic effect): 0: Cells have normal morphology; 4+: >90% of cells showed CTE.; ±c: less than 10% of cells showed CTE; conditions: 0.01 mg/ml, 2% fetal calf serum, 24 hours, 37° C.
Description: as §2, §3

[11] = test system: Respiratory Syncytial Virus; assay: Pretreatment of HeLa cells prior to exposure to Respiratory Syncytial Virus; type: cell-based
Adenovirus = assay: Pretreatment of HeLa cells prior to exposure to Adenovirus; type: cell-based; conditions: 0.125 mg/ml in 10% fetal calf serum MEM
Description: HeLa cells were washed free of growth medium and the cells were exposed to 0.125 mg/ml docusate sodium in 10% fetal calf serum MEM for 15 minutes. The docusate sodium solution was poured off, the cells rinsed with phosphate buffered saline and then exposed to appropriately diluted Adenovirus. A control solution prepared as above except for exposure to docusate sodium was also provided. After one hour at 37° C., the cells were overlayed with agar and incubated for 3 days at 37° C. to allow plaques to develop.

HSV-II = assay: Duration of effect of pretreatment of MA-104 cells prior to exposure to HSV-II; type: cell-based, Herpes Simplex Type 2; conditions: 0.02 mg/ml; for inhibition at 20 µg/mL: Human alphaherpesvirus 2, MA104, read-out: % Reduction In Infectivity
Description: MA-104 cell monolayers were washed twice with Earle's basal salt solution (EBSS) and a 0.02 mg/ml solution of docusate sodium was added to each culture dish. The culture dishes were incubated at 37° C. for one hour and the docusate sodium solutions poured off. The monolayers were then washed twice with EBSS and at appropriate time intervals infected with HSV-II. After the addition of overlay agar, the cultures were incubated at 37° C. for 3 days, stained with crystal voilet, and the plaques counted. Control cultures were treated in a similar manner except for exposure to docusate sodium.

[12] = test system: selected cell lines (MA-104, HeLa, Foreskin)
Influenza A virus [13] = assay: Pretreatment of MDCK cells prior to exposure to Influenza A virus; conditions: 0.1 mg/ml
Description: Virus infectivity was determined by cytopathic effects (CPE).
The same procedure was used for this example as was used for Example 24 except that MDCK cells were substituted for HeLa cells and Influenza A virus was substituted for Respiratory Syncytial Virus. Two experiments were run.

CCCCC(CC)COC(=O)CC(C(=O)OCC(CC)CCCC)S(=O)(=O)O (centres unmarked) [docusate sodium, 1,4-bis(2-ethylhexyl)sodium sulfosuccinate]
killing at 10 µg/mL (HSV-2 [1]; Human alphaherpesvirus 2, MA104, 0.25 h, 0.01 mg/ml, 15 min, 37° C., read-out: % Inactivation of HSV-2): 19%
killing at 20 µg/mL (HSV-2 [1]; Human alphaherpesvirus 2, MA104, 0.25 h, 0.02 mg/ml, 15 min, 37° C., read-out: % Inactivation of HSV-2): 70%
killing at 30 µg/mL (HSV-2 [1]; Human alphaherpesvirus 2, MA104, 0.25 h, 0.03 mg/ml, 15 min, 37° C., read-out: % Inactivation of HSV-2): 97%
killing at 40 µg/mL (HSV-2 [1]; Human alphaherpesvirus 2, MA104, 0.25 h, 0.04 mg/ml, 15 min, 37° C., read-out: % Inactivation of HSV-2): 100%
killing at 50 µg/mL (HSV-2 [1]; Human alphaherpesvirus 2, MA104, 0.25 h, 0.05 mg/ml, 15 min, 37° C., read-out: % Inactivation of HSV-2): 100%
killing at 100 µg/mL (HSV-2 [1]; Human alphaherpesvirus 2, MA104, 0.25 h, 0.1 mg/ml, 15 min, 37° C., read-out: % Inactivation of HSV-2): 100%
killing at 200 µg/mL (HSV-2 [1]; Human alphaherpesvirus 2, MA104, 0.25 h, 0.2 mg/ml, 15 min, 37° C., read-out: % Inactivation of HSV-2): 100%
inactivation of HSV-2 (conclusion) (HSV-2 [1]; concentrations as low as 0.02 mg/ml): effectively inactivates HSV-2
concentration required for a given percentage of HSV-2 inactivation (conclusion) (HSV-2 [2]; 10% fetal calf serum vs serum absent): higher concentrations of docusate sodium were required
killing at 10 µg/mL (HSV-2 [2]; Human alphaherpesvirus 2, 0.25 h, 0.01 mg/ml, 10% fetal calf serum, 15 min, 37° C., read-out: % Inactivation of HSV-2): 10%
killing at 100 µg/mL (HSV-2 [2]; Human alphaherpesvirus 2, 0.25 h, 0.1 mg/ml, 10% fetal calf serum, 15 min, 37° C., read-out: % Inactivation of HSV-2): 10%
killing at 200 µg/mL (HSV-2 [2]; Human alphaherpesvirus 2, 0.25 h, 0.2 mg/ml, 10% fetal calf serum, 15 min, 37° C., read-out: % Inactivation of HSV-2): 95%
plaque forming units (Rotavirus strain SA-11; exposure time 0 minutes (control 17,000)): 16,000 pfu/ml
plaque forming units (Rotavirus strain SA-11; exposure time 15 minutes): 19,000 pfu/ml
plaque forming units (Rotavirus strain SA-11; exposure time 60 minutes (control 13,000)): 27,000 pfu/ml
pfu/ml (Rotavirus strain SA-11; exposure time 0 minutes (control 46,500)): 45,000 pfu/ml
pfu/ml (Rotavirus strain SA-11; exposure time 60 minutes (control 49,000)): 51,000 pfu/ml
inactivation of Rotavirus SA-11 (conclusion) (Rotavirus strain SA-11; 0.2 and 1 mg/ml): did not inactivate Rotavirus SA-11
inactivation of Coxsackievirus B-5 (conclusion) (Coxsackievirus B-5): did not inactivate Coxsackievirus B-5
pfu/ml (Coxsackievirus B-5; exposure time 0 minutes (control 30,000)): 12,500 pfu/ml
pfu/ml (Coxsackievirus B-5; exposure time 15 minutes): 23,000 pfu/ml
pfu/ml (Coxsackievirus B-5; exposure time 60 minutes (control 25,500)): 30,000 pfu/ml
Presence of CPE [3]: -
inactivation of RSV (conclusion) [3]: RSV was inactivated
Presence of CPE (Influenza A virus [4]): -
inactivation of Influenza A virus (conclusion) (Influenza A virus [4]): readily inactivated
cytotoxicity at 24 h [5]: > 90%
HeLa (toxicity) (HeLa; 0.01 mg/ml): 0
HeLa (toxicity) (HeLa; 0.05 mg/ml): 4+ (>90% of cells showed CTE.)
HeLa (toxicity) (HeLa; 0.1 mg/ml): 4+ (>90% of cells showed CTE.)
cytotoxicity at 24 h [6]: > 90%
Foreskin (toxicity) ([7]; 0.01 mg/ml): 0
Foreskin (toxicity) ([7]; 0.05 mg/ml): 4+ (>90% of cells showed CTE.)
Foreskin (toxicity) ([7]; 0.1 mg/ml): 4+ (>90% of cells showed CTE.)
MCC at 24 h [8]: 10 to 50 µg/mL
MA-104 (Cytotoxic effect) (MA-104; 0.01 mg/ml): 0
MA-104 (Cytotoxic effect) (MA-104; 0.02 mg/ml): 0
MA-104 (Cytotoxic effect) (MA-104; 0.03 mg/ml): 0
MA-104 (Cytotoxic effect) (MA-104; 0.04 mg/ml): 0
cytotoxicity at 24 h ([9]; 0.02 mg/ml): < 10%
cytotoxicity at 24 h ([9]; 0.03 mg/ml): > 90%
cytotoxicity at 24 h ([9]; 0.04 mg/ml): > 90%
Foreskin (Cytotoxic effect) [10]: 0
Presence of CPE [11]: - and +
protection of HeLa cells against RSV infection (conclusion) [11]: confers partial protection on HeLa cells against RSV infection
plaque forming units/ml (Adenovirus; pretreatment 15 minutes (control 180,000)): 175,000 pfu/ml
inhibition at 125 µg/mL (Adenovirus; unidentified adenovirus, HeLa, 0.25 h, pretreatment 15 minutes, read-out: % decrease in pfu): 3%
pfu/ml (HSV-II; infection 0 hours after exposure (control 270,000)): 53,000 pfu/ml
pfu/ml (HSV-II; infection 2 hours after exposure (control 30,000)): 14,000 pfu/ml
pfu/ml (HSV-II; infection 24 hours after exposure (control 69,000)): 69,000 pfu/ml
pfu/ml (HSV-II; infection 72 hours after exposure (control 69,000)): 58,000 pfu/ml
duration of anti-herpes effect of pretreatment (conclusion) (HSV-II; one hour pretreatment): transitory
inhibition at 20 µg/mL (HSV-II; infection 0 hours after exposure): 81%
inhibition at 20 µg/mL (HSV-II; infection 2 hours after exposure): 54%
inhibition at 20 µg/mL (HSV-II; infection 24 hours after exposure): 0%
inhibition at 20 µg/mL (HSV-II; infection 72 hours after exposure): 16%
effect of serum on cytotoxicity (conclusion) [12]: presence of serum reduced the cytotoxicity
relative sensitivity of cell lines (conclusion) [12]: MA-104 cells were less sensitive to docusate sodium than were HeLa and foreskin fibroblast cells
Presence of CPE (Influenza A virus [13]; experiment 1, virus dilution 10^-1 (control +)): -
Presence of CPE (Influenza A virus [13]; experiment 1, virus dilution 10^-2 (control +)): -
Presence of CPE (Influenza A virus [13]; experiment 1, virus dilution 10^-3 (control -)): -
Presence of CPE (Influenza A virus [13]; experiment 1, virus dilution 10^-4 (control -)): -
Presence of CPE (Influenza A virus [13]; experiment 2, virus dilution 10^-2 (control +)): -
Presence of CPE (Influenza A virus [13]; experiment 2, virus dilution 10^-3 (control -)): -
Presence of CPE (Influenza A virus [13]; experiment 2, virus dilution 10^-4 (control -)): -
